Data on 2 compounds can be found in patent US5583224A, “Isolation and elucidation of cephalostatin 7, 8 and 9” (Arizona Board of Regents acting on behalf of Arizona State …, priority 1993, dated 1996).

Experiment [1] relates to P388 lymphocytic leukemia cell line. The settings on record: first chemical study, Pettit et al., J. Am. Chem. Soc 1988; cited from earlier work.
Experiment [2] has as its system panel of 60 human tumor cell lines. The experiment is described as follows: NCI standard human tumor cell line panel (60 cell lines). The format is cell-based. The settings on record: for activity against human cancer cell lines: panel of human cancer cell lines employed by NCI. The text has this:
Current research in the control of cancer in the United States is coordinated by the National Cancer Institute (NCI). To determine whether a substance has anti-cancer properties, the NCI has established a systematic protocol. […] The protocol, and the established statistical means for analyzing the results obtained by the standardized testing are fully described in the literature. See: Boyd, Dr. Michael R., Principles & Practice of Oncology, PPO Updates, Volume 3, Number 10, Oct. 1989, for an in depth description of the testing protocol; and Paull, K. D., "Display and Analysis of Patterns of Differential Activity of Drugs Against Human Tumor Cell Lines; Development of Mean Graph and COMPARE Algorithm", Journal of the National Cancer Institute Reports, Vol. 81, No. 14, Page 1088, Jul. 14, 1989 for a description of the methods of statistical analysis. Both of these references are incorporated herein by this reference thereto.

Experiment [3] has as its system P388 lymphocytic leukemia cell line. The experiment can be described thus: P388 lymphocytic leukemia (PS) cell line growth inhibition in vitro. The format is cell-based, murine.

Take `C[C@@H]1[C@]2(O[C@H]3C=C4[C@@H]5CC[C@H]6Cc7nc8c(nc7C[C@]6(C)[C@H]5C[C@@H](O)[C@]4(C)[C@]31O)C[C@@H]1CC[C@H]3C4=CC[C@@H]5[C@H](C)[C@@]6(OC[C@]45C(=O)C[C@@H]3[C@@]1(C)C8)OC(C)(C)C[C@H]6O)O[C@](C)(CO)C[C@H]2O` [cephalostatin 1]: the “P388 ED50” value in experiment [1] is recorded as 10^-7 to 10^-9 μg/mL.
Take `CC1[C@@H]2CC=C3C4CCC5Cc6nc7c(nc6C[C@@]5(C)C4CC(=O)[C@]32CO[C@@]1(O)C(O)CC(C)(C)O)CC1CCC2C3=C[C@H]4O[C@@]5(O[C@@](C)(CO)C[C@@H]5O)C(C)[C@@]4(O)[C@]3(C)[C@@H](O)CC2[C@]1(C)C7` (some centres unmarked) [Cephalostatin 9]: the “activity against other NCI cell lines” value in experiment [2] (other NCI cell lines) is recorded as “confirmed active level”. The “activity against human cancer cell lines” value in experiment [2] was “powerful inhibitors of various human tumor cell lines”; in experiment [2] (listed as cephalostatin 9), “very strong and selective activity”. Further, the “activity against murine P388 lymphocytic leukemia (PS system)” value in experiment [3] is on record as “confirmed active level”.
